For data set [1], the target named is Polymerase acidic protein /RNA-directed RNA polymerase catalytic subunit (Influenza A virus (strain A/Wilson-Smith/1933 H1N1), UniProt P03430+P15659). The data set is described as follows: Inhibition of Influenza A virus A/WSN/1933(H1N1) HA-tagged PA/PB1 interaction in HEK293T cells assessed as inhibition of viral growth by competitive ELISA. Format: cell-based, HEK-293T. (In an ELISA, binding on a coated surface is turned into a signal by an enzyme label.)

Data set [2] in a line: Inhibition of Influenza B virus HA-tagged PA/PB1 interaction in HEK293T cells assessed as inhibition of viral growth by competitive ELISA. The data set is classed as cell-based. As to conditions: hek-293t.
Data set [3] can be described thus: Cytotoxicity against MDCK cells measured after 24 to 120 hrs by MTT assay. The data set is classed as toxicity, cell-based, Canis lupus familiaris. As to conditions: dog. A general note: Formazan colour is commonly taken as a measure of viable cells.
The subject of data set [4] is HEK-293T. Briefly: (§1) Inhibition of Influenza A virus A/PR/8/34 RNA-dependent-RNA polymerase transfected in HEK293T cells assessed as reduction in viral growth after 24 hrs by minireplicon assay. Format: cell-based. The note with it: Influenza A virus (A/Puerto Rico/8/1934(H1N1)). On the technique in general: In antiviral work, replicon cells carry a viral genome segment that copies itself.

A short description of data set [5]: as §1. Format: cell-based, Influenza A virus (A/Puerto Rico/8/1934(H1N1)). As to conditions: hek-293t.
Data set [6] deals with Influenza A virus (A/Puerto Rico/8/1934(H1N1)). The data set is described as follows: (§2) Inhibition of Influenza A virus A/PR/8/34(H1N1) 6His-tagged PA (239 to 716 residues)/GST-tagged PB1 (1 to 15 residues) fused with HIV-Tat interaction by ELISA.
Data set [7] is described as follows: as §2. More on the design: species or system Influenza A virus (A/Puerto Rico/8/1934(H1N1)).
Data set [8] is described as follows: Antiviral activity against Influenza A virus A/PR/8/34 (H1N1) infected in MDCK cells assessed as reduction in plaque formation after 2 days by plaque reduction assay. The data set is classed as functional, cell-based, Influenza A virus (A/Puerto Rico/8/1934(H1N1)). As to conditions: 48 h.
In data set [9] the test system is Influenza A virus. The data set is described as follows: Antiviral activity at Influenza A virus infected in MDCK cells by plaque reduction assay. The data set is classed as functional, cell-based.
Data set [10] deals with Influenza B virus. The data set is described as follows: Antiviral activity at Influenza B virus infected in MDCK cells by plaque reduction assay. The data set is classed as functional, cell-based.
Data set [11] addresses Polymerase acidic protein (Influenza A virus (A/Puerto Rico/8/1934(H1N1)), UniProt P03433). The data set is described as follows: Binding affinity to PA cavity of recombinant Influenza A virus A/PR/8/34(H1N1) PA (239 to 716 residues) measured after 2 mins by SPR analysis.
A short description of data set [12]: Cytotoxicity against MDCK cells by MTT assay. The data set is classed as toxicity, cell-based, Canis lupus familiaris. The note with it: dog.
Data set [13] can be described thus: Inhibition of Influenza B virus B/Lee/40 RNA-dependent-RNA polymerase transfected in MDCK cells assessed as reduction in viral growth after 24 hrs by minireplicon assay. Format: cell-based, Influenza B virus (B/Lee/1940).
Data set [14] in a line: Inhibition of Influenza A virus A/WSN/1933(H1N1) PA/PB1 interaction transfected in HEK293T cells assessed as inhibition of viral growth measured after 24 hrs by minireplicon assay. The data set is classed as cell-based. The note with it: hek-293t.
A short description of data set [15]: Inhibition of Influenza A virus A/PR/8/34(H1N1) RNA-dependent-RNA polymerase transfected in MDCK cells assessed as reduction in viral growth after 24 hrs by minireplicon assay. Format: cell-based, Influenza A virus (A/Puerto Rico/8/1934(H1N1)).
A short description of data set [16]: Inhibition of Influenza A virus A/PR/8/34(H1N1) 6His-tagged PA (239 to 716 residues)/GST-tagged PB1 (1 to 15 residues) interaction. Also on record: species or system Influenza A virus (A/Puerto Rico/8/1934(H1N1)).

As to `CC(C)C[C@H](NC(=O)[C@H](Cc1ccccc1)NC(=O)[C@H](CC(C)C)NC(=O)[C@H](CC(C)C)NC(=O)[C@@H](NC(=O)[C@@H]1CCCN1)[C@@H](C)O)C(=O)N[C@@H](CCCCN)C(=O)O`, the half-maximal inhibitory concentration (IC50) (as a rule, the concentration needed to halve the response being measured) in data set [1] is over 10 µM.
With H-MNINPYFLFIDVPIQ-OH, the IC50 was 0.045 µM in data set [2] and over 3 µM in [1].
`CSCC[C@H](N)C(=O)N[C@@H](CC(=O)O)C(=O)N[C@H](C(=O)N[C@@H](CC(N)=O)C(=O)N1CCC[C@H]1C(=O)N[C@@H](Cc1ccccc1)C(=O)N[C@@H](CC(C)C)C(=O)N[C@@H](CC(C)C)C(=O)N[C@@H](Cc1ccccc1)C(=O)N[C@@H](CC(C)C)C(=O)N[C@@H](CCCCN)C(=O)N[C@H](C(=O)N1CCC[C@H]1C(=O)N[C@@H](C)C(=O)N[C@@H](Cc1ccccc1)C(=O)O)C(C)C)C(C)C`: in data set [1], the IC50 stood at 0.0139 µM.
On to `CSCC[C@H](N)C(=O)N[C@@H](CC(=O)O)C(=O)N[C@H](C(=O)N[C@@H](CC(N)=O)C(=O)N1CCC[C@H]1C(=O)N[C@@H](Cc1ccccc1)C(=O)N[C@@H](CC(C)C)C(=O)N[C@@H](CC(C)C)C(=O)N[C@@H](Cc1ccccc1)C(=O)N[C@@H](CC(C)C)C(=O)N[C@@H](CCCCN)C(=O)N[C@H](C(=O)N[C@@H](CCCCN)C(=O)N[C@@H](C)C(=O)N[C@@H](CCC(N)=O)C(=O)O)C(C)C)C(C)C`, for which, in data set [1], the IC50 was determined as 0.0166 µM.
Take H-MDVNPYLLFLKVPAQ-OH: the values for the IC50 in data set [2] and in data set [1] were 0.107 µM and 0.0216 µM, respectively.
Take `COc1ccc(C(=O)Nc2nc3n(n2)C(c2ccccc2)C=C(C)N3)cc1` (centres undefined): in data set [3], the CC50 – broadly, the concentration giving 50% cytotoxicity – was over 250 µM. Besides, the inhibition entry in [4] and in [6] was “Dose-dependent effect” in each case. The half-maximal inhibitory concentration (IC50) in data set [5] is over 100 µM; in data set [7], 171 µM. Besides, the EC50 (commonly the concentration at which the effect is half-maximal) in [8] is over 100 µM.
Take `CSCC[C@H](N)C(=O)N[C@@H](CC(=O)O)C(=O)N[C@@H](Cc1ccc(O)cc1)C(=O)N[C@@H](CC(N)=O)C(=O)N1CCC[C@H]1C(=O)N[C@@H](Cc1ccccc1)C(=O)N[C@@H](CC(C)C)C(=O)N[C@@H](CC(C)C)C(=O)N[C@@H](Cc1ccccc1)C(=O)N[C@@H](CC(C)C)C(=O)N[C@@H](CCCCN)C(=O)N[C@H](C(=O)N1CCC[C@H]1C(=O)N[C@@H](C)C(=O)N[C@@H](CCC(N)=O)C(=O)O)C(C)C`: in [1], the concentration for half-maximal inhibition (IC50) was found to be 0.0063 µM.
`COC(=O)C1=C(N)N(c2cccc(Cl)c2C)C2=C(C(=O)CCC2)C1c1ccc2c(c1)OCO2` (centres undefined) showed a CC50 in data set [3] of over 1000 µM. Besides, the inhibition result in data set [4] and in data set [6] was “Dose-dependent effect” each time. Moreover, the IC50 in [5] amounted to 18 µM; in data set [7], 30.4 µM. Besides, the EC50 in data set [9] stood at 12 µM; in [8], 18.6 µM; in data set [10], 12 µM.
Turning to `COc1ccc(CC2(CCC(=O)NC(C)Cn3ccc4ccccc43)CCC(=O)N2)cc1` (centres undefined), the CC50 in data set [3] was over 250 µM. For the same compound, the inhibition result in [4] and in data set [6] was “Dose-dependent effect” in each case. Besides, the IC50 in data set [5] was over 100 µM; in data set [7], 200 µM. In [8], the EC50 was over 100 µM.
In [3], `NC(=O)c1c(NC(=O)c2cnn3c(C(F)F)cc(-c4ccccc4)nc23)sc2c1CCC2` displayed a CC50 of over 1000 µM. Moreover, the inhibition result in data set [4] and in data set [6] was “Dose-dependent effect” each time. Further, the IC50 was found to be 31 µM in data set [5] and 25.4 µM in [7]. Moreover, the 50% effective concentration (EC50) in data set [8] was 75 µM.
For the compound `N#CC(c1ccc(Cl)cc1)c1c(Cl)cc(-n2ncc(=O)[nH]c2=O)cc1Cl` (centres undefined) [DICLAZURIL], the 50% effective concentration (EC50) in data set [8] stood at 31 µM. In data set [11], the equilibrium dissociation constant (Kd) (in general, a measure of binding affinity in units of concentration) is 211 µM.
Consider `CCc1oc2ccccc2c1C(=O)c1cc(Br)c(O)c(Br)c1` [BENZBROMARONE], for which the EC50 in [8] came out at 39 µM. Besides, in data set [11], the Kd amounted to 48.2 µM.
Regarding `CC[C@H](C)[C@H](NC(=O)[C@@H]1CCCN1C(=O)[C@@H](NC(=O)[C@H](CCCCN)NC(=O)[C@H](CC(C)C)NC(=O)[C@H](Cc1ccccc1)NC(=O)[C@H](CC(C)C)NC(=O)[C@H](CC(C)C)NC(=O)[C@H](Cc1ccccc1)NC(=O)[C@@H]1CCCN1C(=O)[C@H](CC(N)=O)NC(=O)[C@@H](NC(=O)[C@H](CC(=O)O)NC(=O)[C@@H](N)CCSC)C(C)C)C(C)C)C(=O)N[C@@H](CCC(N)=O)C(=O)O`, the IC50 in data set [1] is 0.0217 µM.
As for `O=[N+]([O-])c1ccc(Sc2cccc(-n3ccnc3)c2)c2nonc12`, half-maximal cytotoxicity in [12] (CC50) was put at 20 µM. In data set [7], this compound displayed a half-maximal inhibitory concentration (IC50) of 15 µM. In addition, the concentration for a half-maximal effect (EC50) in [8] amounted to 10 µM.
With `CSCC[C@H](N)C(=O)N[C@@H](CC(=O)O)C(=O)N[C@H](C(=O)N[C@@H](CC(N)=O)C(=O)N1CCC[C@H]1C(=O)N[C@H](C(=O)N[C@@H](CC(C)C)C(=O)N[C@@H](CC(C)C)C(=O)N[C@@H](Cc1ccccc1)C(=O)N[C@@H](CC(C)C)C(=O)N[C@@H](CCCCN)C(=O)N[C@H](C(=O)N1CCC[C@H]1C(=O)N[C@@H](C)C(=O)N[C@@H](CCC(N)=O)C(=O)O)C(C)C)[C@@H](C)O)C(C)C`, the IC50 in data set [2] was over 3 µM.
In data set [12], `O=[N+]([O-])c1ccc(Oc2ccc(-n3cc(CO)nn3)cc2)c2nonc12` returned a CC50 of 40 µM. Moreover, inhibition in data set [7] was half-maximal at 35 µM (IC50). For the same compound, in data set [8], the EC50 was 1 µM.
In data set [3], `Nc1ccc(O)c2c1C(=O)c1c(N)ccc(O)c1C2=O` yielded a CC50 of over 250 µM. The EC50 in [9] is 13 µM; in data set [13], 8.3 µM; in data set [15] it was 14 µM. For the same compound, the concentration for half-maximal inhibition (IC50) in data set [14] was determined as 16 µM; in [16], 20 µM.
Regarding `CC(=O)O[C@H]1CC[C@H]2[C@@H]3CCC4=CC(=O)CCC4=C3C=C[C@]12C` [TRENBOLONE ACETATE], the concentration giving a half-maximal response (EC50) in [8] was 51 µM. In data set [11], the Kd is 90.7 µM.

Source of the values: ChEMBL document CHEMBL3853272, “Polymerase Acidic Protein-Basic Protein 1 (PA-PB1) Protein-Protein Interaction as a Target for Next-Generation Anti-influenza Therapeutics” (J Med Chem, 2016).
